Earlier results as cited in patent US12029808B2, “Kit and method for dyeing keratinous material by means of aminosilicone and a chromophoric compound” (Henkel AG & Co. KGaA, priority 2019, dated 2024).

Settings: 25° C.

| Compound | solubility in water | solubility in water (in words) |
| --- | --- | --- |
| CCN(Cc1cccc(S(=O)(=O)[O-])c1)c1ccc(C(=C2C=CC(=[N+](CC)Cc3cccc(S(=O)(=O)[O-])c3)C=C2)c2ccccc2S(=O)(=O)[O-])cc1.[Na+].[Na+] [Acid Blue 9] | more than 20 wt. % | – |
| O=S(=O)([O-])c1ccc(N=Nc2c(O)ccc3ccccc23)cc1.[Na+] [Acid Orange 7, sodium salt of 4-[(2-hydroxy-1-naphthyl)azo]benzene sulphonate] | more than 7 g/L | – |
| Nc1cc(S(=O)(=O)[O-])cc2cc(S(=O)(=O)[O-])c(N=Nc3ccccc3)c(O)c12.[Na+].[Na+] [Acid Red 33, diantrium salt of 5-amino-4-hydroxy-3-(phenylazo)-naphthalene-2,7-disulphonate] | 2.5 mg/mL | – |
| O=C([O-])c1c(Cl)c(Cl)c(Cl)c(Cl)c1-c1c2c(Br)cc(=O)c(Br)c-2oc2c(Br)c(O)cc(Br)c12.O=C([O-])c1c(Cl)c(Cl)c(Cl)c(Cl)c1-c1c2c(Br)cc(=O)c(Br)c-2oc2c(Br)c(O)cc(Br)c12.[Na+].[Na+] [Acid Red 92, disodium salt of 3,4,5,6-tetrachloro-2-(1,4,5,8-tetrabromo-6-hydroxy-3-oxoxanthen-9-yl)benzoic acid] | greater than 10 g/L | – |
| O=C([O-])C1=NN(c2ccc(S(=O)(=O)[O-])cc2)C(=O)C1N=Nc1ccc(S(=O)(=O)[O-])cc1.[Na+].[Na+].[Na+] (stereo not drawn) [Acid Yellow 23, trisodium salt of 4,5-dihydro-5-oxo-1-(4-sulfophenyl)-4-((4-sulfophenyl)azo)-1H-pyrazole-3-carboxylic acid] | – | highly soluble in water |
| mixture of the sodium salts of mono- and sisulfonic acids of 2-(2-quinolyl)-1H-indene-1,3(2H)-dione [Acid Yellow 3] | 20 mg/mL | – |
